Experimental data as given in US8613914B2, “Peptidomimetic sulfamide compounds and antiviral uses thereof” (Novartis AG, priority 2009, dated 2013).

Each compound was assayed against HCV NS3-4A serine protease (full-length NS3-4A protein) (Hepatitis C virus genotype 1a (isolate 1) (HCV), UniProt P26664) (assay: HCV NS3-4A protease assay). Conditions: strain HCV-1, fluorogenic peptide substrate, read-out: Protease assay Ex. 12 IC50.
Assay type: biochemical, HCV genotype 1a
Procedure: The inhibitory activity of certain compounds of Table A against HCV NS3-4A serine protease is determined in a homogenous assay using the full-length NS3-4A protein (genotype 1a, strain HCV-1) and a commercially available internally-quenched fluorogenic peptide substrate as described by Taliani, M., et al. 1996 Anal. Biochem. 240:60-67, which is incorporated by reference in its entirety.

Sequence of HCV NS3-4A serine protease (full-length NS3-4A protein) (P26664 1027-1657): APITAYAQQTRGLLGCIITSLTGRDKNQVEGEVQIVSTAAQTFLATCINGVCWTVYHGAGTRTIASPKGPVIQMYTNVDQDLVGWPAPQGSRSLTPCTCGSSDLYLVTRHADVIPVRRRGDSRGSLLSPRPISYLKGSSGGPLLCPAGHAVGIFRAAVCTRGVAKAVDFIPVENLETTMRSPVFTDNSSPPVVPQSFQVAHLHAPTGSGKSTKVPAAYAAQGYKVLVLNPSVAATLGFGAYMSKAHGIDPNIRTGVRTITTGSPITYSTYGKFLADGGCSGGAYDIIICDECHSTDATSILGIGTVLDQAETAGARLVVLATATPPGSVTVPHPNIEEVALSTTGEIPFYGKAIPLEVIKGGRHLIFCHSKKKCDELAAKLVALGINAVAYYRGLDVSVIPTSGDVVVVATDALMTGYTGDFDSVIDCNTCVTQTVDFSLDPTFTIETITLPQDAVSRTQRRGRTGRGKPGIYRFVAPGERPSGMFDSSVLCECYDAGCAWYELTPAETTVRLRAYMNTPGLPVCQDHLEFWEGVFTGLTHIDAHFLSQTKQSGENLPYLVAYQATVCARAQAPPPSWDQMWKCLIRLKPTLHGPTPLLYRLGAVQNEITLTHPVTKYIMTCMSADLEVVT
Sequence of HCV NS3-4A serine protease (full-length NS3-4A protein) (P26664 1658-1711 partner): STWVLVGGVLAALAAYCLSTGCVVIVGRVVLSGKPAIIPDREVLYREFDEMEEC

Row | Compound | IC50
1 | C=C[C@@H]1C[C@]1(NC(=O)[C@@H]1C[C@@]2(CN1C(=O)[C@@H](NC(=O)[C@@H](NC(=O)[C@@H]1CCCCN1C(C)C)C(C)(C)C)C1(C)CCOCC1)C(C)(C)C21CCC1)C(=O)NS(=O)(=O)N1CCCC1 [Compound 128, (5R,8S)-7-[(2S)-2-[(N-{[(2S)-1-isopropylpiperidin-2-yl]carbonyl}-3-methyl-L-valyl)amino]-2-(4-methyltetrahydro-2H-pyran-4-yl)acetyl]-10,10-dimethyl-N-{(1R,2S)-1-[(pyrrolidin-1-ylsulfonyl)carbamoyl]-2-vinylcyclopropyl}-7-azadispiro[3.0.4.1]decane-8-carboxamide] | 1.4 nM
2 | C=C[C@@H]1C[C@]1(NC(=O)[C@@H]1C[C@@]2(CN1C(=O)[C@@H](NC(=O)[C@@H](NC(=O)[C@@H]1CCCN1CC)C1CCOCC1)C1(C)CCOCC1)C(C)(C)C21CCC1)C(=O)NS(=O)(=O)N1CCCC1 [Compound 129, (5R,8S)-7-[(2S)-2-{[(2S)-2-({[(2S)-1-ethylpyrrolidin-2-yl]carbonyl}amino)-2-(tetrahydro-2H-pyran-4-yl)acetyl]amino}-2-(4-methyltetrahydro-2H-pyran-4-yl)acetyl]-10,10-dimethyl-N-{(1R,2S)-1-[(pyrrolidin-1-ylsulfonyl)carbamoyl]-2-vinylcyclopropyl}-7-azadispiro[3.0.4.1]decane-8-carboxamide] | 6 nM
3 | C=C[C@@H]1C[C@]1(NC(=O)[C@@H]1C[C@@]2(CN1C(=O)[C@@H](NC(=O)[C@@H](NC(=O)[C@@H]1CCCCN1C(C)C)C(C)C)C(C)C)C(C)(C)C21CCC1)C(=O)NS(=O)(=O)N(CC)CC [Compound 130, (5R,8S)-N-[(1R,2S)-1-{[(diethylamino)sulfonyl]carbamoyl}-2-vinylcyclopropyl]-7-[(2S)-2-{[(2S)-2-({[(2S)-1-isopropylpiperidin-2-yl]carbonyl}amino)-3-methylbutanoyl]amino}-3-methylbutanoyl]-10,10-dimethyl-7-azadispiro[3.0.4.1]decane-8-carboxamide] | 8 nM
4 | C=C[C@@H]1C[C@]1(NC(=O)[C@@H]1C[C@@]2(CN1C(=O)[C@@H](NC(=O)[C@@H](NC(=O)[C@@H]1CCCCN1C(C)C)C(C)(C)C)C(C)C)C(C)(C)C21CCC1)C(=O)NS(=O)(=O)N(CC)CC [Compound 131, (5R,8S)-N-[(1R,2S)-1-{[(diethylamino)sulfonyl]carbamoyl}-2-vinylcyclopropyl]-7-[(2S)-2-{[(2S)-2-({[(2S)-1-isopropylpiperidin-2-yl]carbonyl}amino)-3,3-dimethylbutanoyl]amino}-3-methylbutanoyl]-10,10-dimethyl-7-azadispiro[3.0.4.1]decane-8-carboxamide] | 5.5 nM
5 | C=C[C@@H]1C[C@]1(NC(=O)[C@@H]1C[C@@]2(CN1C(=O)[C@@H](NC(=O)[C@@H](NC(=O)[C@@H]1CCCCN1C(C)C)C1CCCCC1)C(C)C)C(C)(C)C21CCC1)C(=O)NS(=O)(=O)N(CC)CC [Compound 132, (5R,8S)-7-[(2S)-2-{[(2S)-2-cyclohexyl-2-({[(2S)-1-isopropylpiperidin-2-yl]carbonyl}amino)acetyl]amino}-3-methylbutanoyl]-N-[(1R,2S)-1-{[(diethylamino)sulfonyl]carbamoyl}-2-vinylcyclopropyl]-10,10-dimethyl-7-azadispiro[3.0.4.1]decane-8-carboxamide] | 2.8 nM
6 | C=C[C@@H]1C[C@]1(NC(=O)[C@@H]1C[C@@]2(CN1C(=O)[C@@H](NC(=O)[C@@H](NC(=O)[C@@H]1CCCCN1C(C)C)C1(C)CCCCC1)C(C)(C)C)C(C)(C)C21CCC1)C(=O)NS(=O)(=O)N(CC)CC [Compound 133, (5R,8S)-N-[(1R,2S)-1-{[(diethylamino)sulfonyl]carbamoyl}-2-vinylcyclopropyl]-7-[(2S)-2-{[(2S)-2-({[(2S)-1-isopropylpiperidin-2-yl]carbonyl}amino)-2-(1-methylcyclohexyl)acetyl]amino}-3,3-dimethylbutanoyl]-10,10-dimethyl-7-azadispiro[3.0.4.1]decane-8-carboxamide] | 3 nM
7 | C=C[C@@H]1C[C@]1(NC(=O)[C@@H]1C[C@@]2(CN1C(=O)[C@@H](NC(=O)[C@@H](NC(=O)[C@@H]1CCCN1CC)C1(C)CCCCC1)C(C)(C)C)C(C)(C)C21CCC1)C(=O)NS(=O)(=O)N(CC)CC [Compound 134, (5R,8S)-N-[(1R,2S)-1-{[(diethylamino)sulfonyl]carbamoyl}-2-vinylcyclopropyl]-7-[(2S)-2-{[(2S)-2-({[(2S)-1-ethylpyrrolidin-2-yl]carbonyl}amino)-2-(1-methylcyclohexyl)acetyl]amino}-3,3-dimethylbutanoyl]-10,10-dimethyl-7-azadispiro[3.0.4.1]decane-8-carboxamide] | 5 nM
8 | C=C[C@@H]1C[C@]1(NC(=O)[C@@H]1C[C@@]2(CN1C(=O)[C@@H](NC(=O)[C@@H](NC(=O)[C@@H]1CCCCN1C(C)C)C1(C)CCCCC1)C(C)(C)C)C(C)(C)C21CCC1)C(=O)NS(=O)(=O)N1CCCC1 [Compound 135, (5R,8S)-7-[(2S)-2-{[(2S)-2-({[(2S)-1-isopropylpiperidin-2-yl]carbonyl}amino)-2-(1-methylcyclohexyl)acetyl]amino}-3,3-dimethylbutanoyl]-10,10-dimethyl-N-{(1R,2S)-1-[(pyrrolidin-1-ylsulfonyl)carbamoyl]-2-vinylcyclopropyl}-7-azadispiro[3.0.4.1]decane-8-carboxamide] | 4.5 nM
9 | C=C[C@@H]1C[C@]1(NC(=O)[C@@H]1C[C@@]2(CN1C(=O)[C@@H](NC(=O)[C@@H](NC(=O)[C@@H]1CCCN1CC)C1(C)CCCCC1)C(C)(C)C)C(C)(C)C21CCC1)C(=O)NS(=O)(=O)N1CCCC1 [Compound 136, (5R,8S)-7-[(2S)-2-{[(2S)-2-({[(2S)-1-ethylpyrrolidin-2-yl]carbonyl}amino)-2-(1-methylcyclohexyl)acetyl]amino}-3,3-dimethylbutanoyl]-10,10-dimethyl-N-{(1R,2S)-1-[(pyrrolidin-1-ylsulfonyl)carbamoyl]-2-vinylcyclopropyl}-7-azadispiro[3.0.4.1]decane-8-carboxamide] | 7 nM
10 | C=C[C@@H]1C[C@]1(NC(=O)[C@@H]1C[C@@]2(CN1C(=O)[C@@H](NC(=O)[C@@H](NC(=O)[C@H]1CCCCN1C(C)C)C1CCCCC1)C(C)(C)C)C(C)(C)C21CCC1)C(=O)NS(=O)(=O)N(CC)CCC [Compound 137, (5R,8S)-7-[(2S)-2-{[(2S)-2-cyclohexyl-2-({[(2R)-1-isopropylpiperidin-2-yl]carbonyl}amino)acetyl]amino}-3,3-dimethylbutanoyl]-N-[(1R,2S)-1-({[ethyl(propyl)amino]sulfonyl}carbamoyl)-2-vinylcyclopropyl]-10,10-dimethyl-7-azadispiro[3.0.4.1]decane-8-carboxamide] | 3.5 nM
11 | [2H]C([2H])([2H])C([2H])([2H])N1CCC[C@H]1C(=O)NC(C(=O)N[C@H](C(=O)N1C[C@]2(C[C@H]1C(=O)N[C@]1(C(=O)NS(=O)(=O)N3CCCC3)C[C@H]1C=C)C(C)(C)C21CCC1)C(C)(C)C)C1CCCCC1 (stereo partly drawn) [Compound 138, (5R,8S)-7-[(2S)-2-{[(2S)-2-cyclohexyl-2-({[(2S)-1-d5-ethylpyrrolidin-2-yl]carbonyl}amino)acetyl]amino}-3,3-dimethylbutanoyl]-10,10-dimethyl-N-{(1R,2S)-1-[(pyrrolidin-1-ylsulfonyl)carbamoyl]-2-vinylcyclopropyl}-7-azadispiro[3.0.4.1]decane-8-carboxamide-d5] | 3 nM
12 | [2H]C([2H])([2H])C([2H])([2H])N1CCCC[C@H]1C(=O)NC(C(=O)N[C@H](C(=O)N1C[C@]2(C[C@H]1C(=O)N[C@]1(C(=O)NS(=O)(=O)N3CCCC3)C[C@H]1C=C)C(C)(C)C21CCC1)C(C)(C)C)C1CCCCC1 (stereo partly drawn) [Compound 139, (5R,8S)-7-[(2S)-2-{[(2S)-2-cyclohexyl-2-({[(2S)-1-d5-ethylpiperidin-2-yl]carbonyl}amino)acetyl]amino}-3,3-dimethylbutanoyl]-10,10-dimethyl-N-{(1R,2S)-1-[(pyrrolidin-1-ylsulfonyl)carbamoyl]-2-vinylcyclopropyl}-7-azadispiro[3.0.4.1]decane-8-carboxamide-d5] | 3.5 nM
13 | CC[C@@H]1C[C@]1(NC(=O)[C@@H]1C[C@@]2(CN1C(=O)[C@@H](NC(=O)[C@@H](NC(=O)[C@@H]1CCCCN1C(C)C)C1CCCCC1)C(C)(C)C)C(C)(C)C21CCC1)C(=O)NS(=O)(=O)N(C)C(C)C [Compound 141, (5R,8S)-7-[(2S)-2-{[(2S)-2-cyclohexyl-2-({[(2S)-1-isopropylpiperidin-2-yl]carbonyl}amino)acetyl]amino}-3,3-dimethylbutanoyl]-N-[(1R,2R)-2-ethyl-1-({[isopropyl(methyl)amino]sulfonyl}carbamoyl)cyclopropyl]-10,10-dimethyl-7-azadispiro[3.0.4.1]decane-8-carboxamide] | 8 nM
14 | CCCN(C)S(=O)(=O)NC(=O)[C@@]1(NC(=O)[C@@H]2C[C@@]3(CN2C(=O)[C@@H](NC(=O)[C@@H](NC(=O)[C@@H]2CCCCN2C(C)C)C2CCCCC2)C(C)(C)C)C(C)(C)C32CCC2)C[C@H]1CC [Compound 142, (5R,8S)-7-[(2S)-2-{[(2S)-2-cyclohexyl-2-({[(2S)-1-isopropylpiperidin-2-yl]carbonyl}amino)acetyl]amino}-3,3-dimethylbutanoyl]-N-[(1R,2R)-2-ethyl-1-({[methyl(propyl)amino]sulfonyl}carbamoyl)cyclopropyl]-10,10-dimethyl-7-azadispiro[3.0.4.1]decane-8-carboxamide] | 10 nM
